Tests used:
human naïve CD4+ T cells [1] = experiment: kinetic metabolome analysis of activated T cells; format: cell-based; details: L-arginine in medium increased 4-fold (1 mM standard), all time points
Procedure: (B) Differential analysis of the glycolytic pathway between naïve CD4^+ T cells cultured in L-Arg medium or Ctrl medium, 96 h after activation. Log 2 fold changes of proteins and metabolites are color-coded. […] 3-P-Glycerate and 2-P-Glycerate could not be distinguished as they have the same mass. (C) 72 h-activated T cells were plated in fresh medium and glucose consumption was determined enzymatically after 24 h; n=9 from three donors. (D) Seahorse experiment performed with activated (96 h) T cells from one donor. Oligomycin was injected after 56 min, FCCP after 96 min, and antimycin (to inhibit the respiratory chain) after 136 min. Data are representative of 5 independent experiments with different donors.
(A) Human naïve CD4^+ T cells were activated in normal medium or in L-Arg medium. Nitric oxide formation was measured using DAF-FM diacetate at different time points.
Naïve CD4^+ T cells were either analyzed directly after isolation or at different time points after activation with CD3 and CD28 antibodies. Cells were washed twice in 96-well plates with 75 mM ammonium carbonate at pH 7.4 and snap frozen in liquid nitrogen. Metabolites were extracted three times with hot (>70° C.) 70% ethanol. Extracts were analyzed by flow injection—time of flight mass spectrometry on an Agilent 6550 QTOF instrument operated in the negative mode, as described previously (Fuhrer et al., 2011). Typically 5,000-12,000 ions with distinct mass-to-charge (m/z) ratio could be identified in each batch of samples. Ions were putatively annotated by matching their measured mass to that of the compounds listed by the KEGG database for Homo sapiens, allowing a tolerance of 0.001 Da. Only deprotonated ions (without adducts) were considered in the analysis. In case of multiple matching, such as in the case of structural isomers, all candidates were retained.

human naïve CD4+ T cells [2] = experiment: proteome analysis of T cells activated in L-arginine-supplemented medium; format: cell-based
Procedure: Samples were processed as described by (Hornburg et al., 2014). In brief, cell pellets were washed with PBS and lysed in 4% SDS, 10 mM HEPES (pH 8), 10 mM DTT. Cell pellets were heat-treated at 95° C. for 10 min and sonicated at 4° C. for 15 min (level 5, Bioruptor, Diagenode). Alkylation was performed in the dark for 30 min by adding 55 mM iodoacetamide (IAA). Proteins were precipitated overnight with acetone at −20° C. and resuspended the next day in 8 M Urea, 10 mM Hepes (pH 8). A two-step proteolytic digestion was performed. First, samples were digested at room temperature (RT) with LysC (1:50, w/w) for 3 h. Then, they were diluted 1:5 with 50 mM ammoniumbicarbonate (pH 8) and digested with trypsin (1:50, w/w) at RT overnight. The resulting peptide mixtures were acidified and loaded on C18 StageTips (Rappsilber et al., 2007). […]
Peptides were separated on an EASY-nLC 1000 HPLC system (Thermo Fisher Scientific, Odense, Denmark) coupled online to a Q Exactive mass spectrometer via a nanoelectrospray source (Thermo Fisher Scientific) (Michalski et al., 2011). […] Operational parameters were real-time monitored by the SprayQC software (Scheltema and Mann, 2012). […]
MaxQuant software (version 1.3.10.18) was used to analyze MS raw files (Cox and Mann, 2008). […] Nonlinear retention time alignment of all measured samples was performed in MaxQuant. […]

B16.OVA melanoma [3] = experiment: Tumor experiment: in vitro activation of T cells; format: in vivo, C57BL/6 mice; details: L-arginine-treated OT-I T cells transferred into B16 OVA tumor bearing mice
Procedure: B16-OVA melanoma cells were cultured in RPMI 1640 plus 10% FCS, 1% penicillin/streptomycin and 2 mM glutamine. Before injection into mice, cells were trypsinized and washed twice in PBS. Then, 5×10^5 cells were subcutaneously injected in the dorsal region of Wt C57BL/6 mice. Ten days post injection, 5×10^6 OT-I cells, that have been activated in vitro as described above, were injected into the tail vein of tumor-bearing mice. The size of tumors was measured in a blinded fashion using calipers.

T cell proteome = experiment: Limited proteolysis and mass spectrometry (structural changes); format: binding, human
B16.OVA melanoma [4] = experiment: Tumor experiment: in vivo priming of T cells, oral L-arginine; set-up: species or system C57BL/6 mice; details: mice fed with L-arginine 1.5 mg/g body weight daily vs PBS
Procedure: B16-OVA melanoma cells were cultured and injected into Wt C57BL/6 mice as described above. Five clays post injection, when tumors were very small, mice were γ-irradiated (5 Gy) and 24 hours later they received 4×10^5 OT-I cells intravenously (i.v.). The clay after mice were immunized intraperitoneally (i.p.) with […] peptide (OVA257-264) in Inject Alum Adjuvant (Thermo Fisher Scientific). L-Arg (1.5 g/Kg body weight) or PBS, as control, was daily orally administrated, starting one clay before T cell transfer and until the end of the experiment. The size of tumors was measured in a blinded fashion using calipers.

mTOR = experiment: Analysis of phosphorylation levels of 4E-BP and S6K1; format: cell-based, human; details: 3 mM L-arginine supplementation, 4 days activated
Procedure: Naïve CD4^+ T cells were activated with plate-bound antibodies to CD3 and CD28. Four days after activation, cells were lysed and analyzed by Western blot with the following antibodies obtained from Cell Signaling Technology. Phospho-p70 S6K(Thr389) #9205; p70 S6 Kinase #9202; Phospho-4E-BP1 (Thr37/46) #2855; 4E-BP1 #9644. Rapamycin (Sigma) was used at 100 nM.

With `N=C(N)NCCC[C@H](N)C(=O)O` [L-arginine] the “Intracellular arginine levels compared to controls” value (human naïve CD4+ T cells [1]) was 1.5-2.5 fold, the “Intracellular ornithine levels compared to controls” value (human naïve CD4+ T cells [1]) was 1.5-2.5 fold and the Sirtuin-1 copy numbers (human naïve CD4+ T cells [2]; L-Arg-medium vs normal medium) was “up-regulates”. The “number of proteins with significantly different expression (out of 7,243)” value (human naïve CD4+ T cells [2]; L-arginine-supplemented medium) was 202, the “anti-tumor response: survival of mice” value (B16.OVA melanoma [3]) was “increased survival of mice” and the “anti-tumor response: tumor size” value (B16.OVA melanoma [3]) was “reduction of tumor size”. For the same molecule, the “protein domains affected by structural changes” value (T cell proteome; 1 mM L-arginine) was “affect the PHD domain of BAZ1B and the AT-hook DNA-binding domain of PSIP1”, the “number of proteins (out of 5,856 identified) with structural change exclusively in response to L-arginine” value (T cell proteome; 1 mM, not affected by D-arginine or L-ornithine, six donors) was 20 and the “anti-tumor response of OT-I T cells primed in vivo” value (B16.OVA melanoma [4]) was “superior in mediating an anti-tumor response”. For the same molecule, the “phosphorylation levels of two targets of mTOR (p70 S6K1 and 4E-BP)” value (mTOR) was “did not change”.
